Read-outs that look alike come from different tables or passages of the source. Each block holds one molecule with its values, some of them ahead of it.
Columns and labels:
[1] = system: Hsp90 in HEPG2 lysate; conditions: for FP signal (raw) / FP signal / EC50: HepG2 lysate; for FP signal: raw; for EC50: oxime panel experiment 220817
[2] = target: T1, Hsp90 in C. albicans (SC5314) lysate (Candida albicans, UniProt P46598); assay: biochemical; assay type: binding; conditions: for Ratio re. GdA: EC50 relative to GdA; for Ratio re. GdA / FP signal (raw) / FP signal relative to 0 nM / FP signal / EC50: SC5314 lysate; for FP signal: raw; for EC50: not normalized, oxime panel experiment 220817, read-out: EC50
T1 construct: endogenous in cells; host or cells: C. albicans SC5314 whole-cell lysate
T1 sequence (P46598 whole entry): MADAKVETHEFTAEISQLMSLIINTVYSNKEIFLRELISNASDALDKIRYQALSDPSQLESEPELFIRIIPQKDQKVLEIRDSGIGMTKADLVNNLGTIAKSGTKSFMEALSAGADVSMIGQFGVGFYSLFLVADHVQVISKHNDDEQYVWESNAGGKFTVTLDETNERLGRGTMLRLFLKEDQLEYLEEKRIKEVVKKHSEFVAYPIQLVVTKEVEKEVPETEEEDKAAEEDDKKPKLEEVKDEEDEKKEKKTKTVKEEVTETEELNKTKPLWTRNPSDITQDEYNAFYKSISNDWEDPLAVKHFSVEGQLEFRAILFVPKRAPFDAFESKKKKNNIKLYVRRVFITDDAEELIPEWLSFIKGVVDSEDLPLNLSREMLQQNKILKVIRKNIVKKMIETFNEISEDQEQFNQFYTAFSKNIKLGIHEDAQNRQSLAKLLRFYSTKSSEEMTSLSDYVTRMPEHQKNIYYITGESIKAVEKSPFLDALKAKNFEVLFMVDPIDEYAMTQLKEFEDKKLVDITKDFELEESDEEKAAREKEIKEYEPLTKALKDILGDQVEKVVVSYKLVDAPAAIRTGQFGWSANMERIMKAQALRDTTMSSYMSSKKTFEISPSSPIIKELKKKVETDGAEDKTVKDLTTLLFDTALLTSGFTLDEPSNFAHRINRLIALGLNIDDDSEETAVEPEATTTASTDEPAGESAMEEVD

[3] = EC50 / EC50 of GdA in HepG2 lysate
[4] = EC50 relative to GdA, HEPG2 lysate
[5] = HEPG2 lysate, log concentration 0.137354 (1.372 nM)
[6] = HEPG2 lysate, log concentration 0.61437 (4.115 nM)
[7] = HEPG2 lysate, log concentration 1.09153 (12.346 nM)
[8] = HEPG2 lysate, log concentration 1.56864 (37.037 nM)
[9] = HEPG2 lysate, log concentration 2.04576 (111.111 nM)
[10] = HEPG2 lysate, log concentration 2.52288 (333.333 nM)
[11] = HEPG2 lysate, log concentration 3 (1000 nM)
[12] = HEPG2 lysate, log concentration 3.47712 (3000 nM)
[13] = HEPG2 lysate, log concentration -0.340084 (0.457 nM)
[14] = ratio of GdA-normalized EC50s, human over fungal lysate
[15] = ratio of GdA-relative EC50 ratios, HepG2 over SC5314

EC50 [1]: 729 nM
Ratio re. GdA [2]: 24.5326
FP signal (raw) ([2]; 0.457 nM): 193
FP signal relative to 0 nM ([2]; 0.457 nM compound): 0.9461
FP signal ([2]; 0.457 nM compound): 193
FP signal (raw) ([2]; 1.372 nM): 197
FP signal relative to 0 nM ([2]; 1.372 nM compound): 0.9657
FP signal ([2]; 1.372 nM compound): 197
FP signal (raw) ([2]; 4.115 nM): 190
FP signal relative to 0 nM ([2]; 4.115 nM compound): 0.9314
FP signal ([2]; 4.115 nM compound): 190
FP signal (raw) ([2]; 12.346 nM): 193
FP signal relative to 0 nM ([2]; 12.346 nM compound): 0.9461
FP signal ([2]; 12.346 nM compound): 193
FP signal (raw) ([2]; 37.037 nM): 190
FP signal relative to 0 nM ([2]; 37.037 nM compound): 0.9314
FP signal ([2]; 37.037 nM compound): 190
FP signal (raw) ([2]; 111.111 nM): 176
FP signal relative to 0 nM ([2]; 111.111 nM compound): 0.8627
FP signal ([2]; 111.111 nM compound): 176
FP signal (raw) ([2]; 333.333 nM): 131
FP signal relative to 0 nM ([2]; 333.333 nM compound): 0.6422
FP signal ([2]; 333.333 nM compound): 131
FP signal (raw) ([2]; 1000 nM): 57
FP signal relative to 0 nM ([2]; 1000 nM compound): 0.2794
FP signal ([2]; 1000 nM compound): 57
FP signal (raw) ([2]; 3000 nM): 38
FP signal relative to 0 nM ([2]; 3000 nM compound): 0.1863
FP signal ([2]; 3000 nM compound): 38
EC50 [2]: 417 nM
HepG2/SC5314 [2, 14]: 1.34
HepG2/SC5314 [2, 15]: 1.34
Compound: COc1ccccc1CON=C1C=CC=CC2OC2CC(C)OC(=O)c2c(O)cc(O)c(Cl)c2C1 (mixture of isomers) [compound 226]
Ratio rel. GdA (HepG2) [1, 3]: 32.872
Ratio rel. GdA (HepG2) [1, 4]: 32.872
FP signal, Fxn Control [1, 5]: 0.9856
FP signal, Fxn Control [1, 6]: 0.9952
FP signal, Fxn Control [1, 7]: 0.9952
FP signal, Fxn Control [1, 8]: 0.9809
FP signal, Fxn Control [1, 9]: 0.9426
FP signal, Fxn Control [1, 10]: 0.8517
FP signal, Fxn Control [1, 11]: 0.445
FP signal, Fxn Control [1, 12]: 0.2105
FP signal, Fxn Control [1, 13]: 0.9713
FP signal (raw) ([1]; 0.457 nM): 203
FP signal ([1]; 0.457 nM compound): 203
FP signal (raw) ([1]; 1.372 nM): 206
FP signal ([1]; 1.372 nM compound): 206
FP signal (raw) ([1]; 4.115 nM): 208
FP signal ([1]; 4.115 nM compound): 208
FP signal (raw) ([1]; 12.346 nM): 208
FP signal ([1]; 12.346 nM compound): 208
FP signal (raw) ([1]; 37.037 nM): 205
FP signal ([1]; 37.037 nM compound): 205
FP signal (raw) ([1]; 111.111 nM): 197
FP signal ([1]; 111.111 nM compound): 197
FP signal (raw) ([1]; 333.333 nM): 178
FP signal ([1]; 333.333 nM compound): 178
FP signal (raw) ([1]; 1000 nM): 93
FP signal ([1]; 1000 nM compound): 93
FP signal (raw) ([1]; 3000 nM): 44
FP signal ([1]; 3000 nM compound): 44

EC50 [1]: 664 nM
Ratio re. GdA [2]: 21.164
FP signal (raw) ([2]; 0.457 nM): 194
FP signal relative to 0 nM ([2]; 0.457 nM compound): 0.9652
FP signal ([2]; 0.457 nM compound): 194
FP signal (raw) ([2]; 1.372 nM): 195
FP signal relative to 0 nM ([2]; 1.372 nM compound): 0.9701
FP signal ([2]; 1.372 nM compound): 195
FP signal (raw) ([2]; 4.115 nM): 190
FP signal relative to 0 nM ([2]; 4.115 nM compound): 0.9453
FP signal ([2]; 4.115 nM compound): 190
FP signal (raw) ([2]; 12.346 nM): 193
FP signal relative to 0 nM ([2]; 12.346 nM compound): 0.9602
FP signal ([2]; 12.346 nM compound): 193
FP signal (raw) ([2]; 37.037 nM): 178
FP signal relative to 0 nM ([2]; 37.037 nM compound): 0.8856
FP signal ([2]; 37.037 nM compound): 178
FP signal (raw) ([2]; 111.111 nM): 162
FP signal relative to 0 nM ([2]; 111.111 nM compound): 0.806
FP signal ([2]; 111.111 nM compound): 162
FP signal (raw) ([2]; 333.333 nM): 111
FP signal relative to 0 nM ([2]; 333.333 nM compound): 0.5522
FP signal ([2]; 333.333 nM compound): 111
FP signal (raw) ([2]; 1000 nM): 56
FP signal relative to 0 nM ([2]; 1000 nM compound): 0.2786
FP signal ([2]; 1000 nM compound): 56
FP signal (raw) ([2]; 3000 nM): 32
FP signal relative to 0 nM ([2]; 3000 nM compound): 0.1592
FP signal ([2]; 3000 nM compound): 32
EC50 [2]: 360 nM
HepG2/SC5314 [2, 14]: 1.415
HepG2/SC5314 [2, 15]: 1.415
Compound: CC1CC2OC2C=CC=CC(=NOCc2cccc(F)c2)Cc2c(Cl)c(O)cc(O)c2C(=O)O1 (mixture of isomers) [compound 227]
Ratio rel. GdA (HepG2) [1, 3]: 29.9414
Ratio rel. GdA (HepG2) [1, 4]: 29.9414
FP signal, Fxn Control [1, 5]: 0.976
FP signal, Fxn Control [1, 6]: 0.9615
FP signal, Fxn Control [1, 7]: 0.9712
FP signal, Fxn Control [1, 8]: 0.9519
FP signal, Fxn Control [1, 9]: 0.9038
FP signal, Fxn Control [1, 10]: 0.7933
FP signal, Fxn Control [1, 11]: 0.399
FP signal, Fxn Control [1, 12]: 0.1923
FP signal, Fxn Control [1, 13]: 0.976
FP signal (raw) ([1]; 0.457 nM): 203
FP signal ([1]; 0.457 nM compound): 203
FP signal (raw) ([1]; 1.372 nM): 203
FP signal ([1]; 1.372 nM compound): 203
FP signal (raw) ([1]; 4.115 nM): 200
FP signal ([1]; 4.115 nM compound): 200
FP signal (raw) ([1]; 12.346 nM): 202
FP signal ([1]; 12.346 nM compound): 202
FP signal (raw) ([1]; 37.037 nM): 198
FP signal ([1]; 37.037 nM compound): 198
FP signal (raw) ([1]; 111.111 nM): 188
FP signal ([1]; 111.111 nM compound): 188
FP signal (raw) ([1]; 333.333 nM): 165
FP signal ([1]; 333.333 nM compound): 165
FP signal (raw) ([1]; 1000 nM): 83
FP signal ([1]; 1000 nM compound): 83
FP signal (raw) ([1]; 3000 nM): 40
FP signal ([1]; 3000 nM compound): 40

Reference: article PMC6345968, “Structural basis for species-selective targeting of Hsp90 in a pathogenic fungus” (Nature Communications, 2019)
